Assay results from the supplement of paper PMC10307832.

Tests used:
Test in all cases: relative viability (nuclei count vs DMSO), 5 days (fraction); higher = more cells survive
NCI-H2087 = test system: NCI-H2087
Outline: (§1)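 Nuclei were stained with Hoechst during a one-step fixation (final 0.05% Triton X-100, 1% formaldehyde, 1 ug/ml Hoechst) carried out 5 days after dosing, then counted on 4× images. The cells, lung cancer lines in 1536-well plates, had been dosed by pin tool the day after seeding with one drug alone or a fixed anchor-drug dose plus five library-drug doses (not always all listed) in √10 steps. Relative viability is the nuclei count in treated wells divided by that in vehicle wells, and each value is the median of duplicate plates.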

COR-L 105 = test system: COR-L 105
Outline: as §1

201T = test system: 201T
Outline: as §1

NCI-H1437 = test system: NCI-H1437
Outline: as §1

NCI-H2170 = test system: NCI-H2170
Outline: as §1

NCI-H647 = test system: NCI-H647
Outline: as §1

HCC-827 = test system: HCC-827
Outline: as §1

NCI-H1975 = test system: NCI-H1975
Outline: as §1

SW 1573 = test system: SW 1573
Outline: as §1

LOU-NH91 = test system: LOU-NH91
Outline: as §1

NCI-H2342 = test system: NCI-H2342
Outline: as §1

EPLC-272H = test system: EPLC-272H
Outline: as §1

PC-3 [JPC-3] = test system: PC-3 [JPC-3]
Outline: as §1

H3255 = test system: H3255
Outline: as §1

HCC-44 = test system: HCC-44
Outline: as §1

LU99A = test system: LU99A
Outline: as §1

EKVX = test system: EKVX
Outline: as §1

NCI-H1666 = test system: NCI-H1666
Outline: as §1

NCI-H2085 = test system: NCI-H2085
Outline: as §1

NCI-H650 = test system: NCI-H650
Outline: as §1

BEN = test system: BEN
Outline: as §1

LCLC-97TM1 = test system: LCLC-97TM1
Outline: as §1

For `COc1cc2nccc(Oc3ccc(NC(=O)Nc4cc(C)on4)c(Cl)c3)c2cc1OC` [Tivozanib] + O=C(c1cc(Cc2n[nH]c(=O)c3ccccc23)ccc1F)N1CCN(C(=O)C2CC2)CC1 [Olaparib] (partner 8 µM), the relative viability (NCI-H2087; first compound 0.005 µM) was 0.542, the relative viability (NCI-H2087; first compound 0.01581 µM) was 0.51 and the relative viability (NCI-H2087; first compound 0.05 µM) was 0.652. For the same compound, the relative viability (NCI-H2087; first compound 0.1581 µM) was 0.683, the relative viability (NCI-H2087; first compound 0.5 µM) was 0.713 and the relative viability (COR-L 105; first compound 0.005 µM) was 0.629. It also gave a relative viability (COR-L 105; first compound 0.01581 µM) of 0.558, a relative viability (COR-L 105; first compound 0.05 µM) of 0.773 and a relative viability (COR-L 105; first compound 0.1581 µM) of 0.713. It also gave a relative viability (COR-L 105; first compound 0.5 µM) of 0.705, a relative viability (201T; first compound 0.005 µM) of 0.826 and a relative viability (201T; first compound 0.01581 µM) of 0.853. The relative viability (201T; first compound 0.05 µM) was 0.821, the relative viability (201T; first compound 0.1581 µM) was 0.875 and the relative viability (201T; first compound 0.5 µM) was 0.868. For the same compound, the relative viability (NCI-H1437; first compound 0.005 µM) was 0.613, the relative viability (NCI-H1437; first compound 0.01581 µM) was 0.628 and the relative viability (NCI-H1437; first compound 0.05 µM) was 0.658. The relative viability (NCI-H1437; first compound 0.1581 µM) was 0.613, the relative viability (NCI-H1437; first compound 0.5 µM) was 0.584 and the relative viability (NCI-H2170; first compound 0.005 µM) was 0.484. For the same compound, the relative viability (NCI-H2170; first compound 0.01581 µM) was 0.596, the relative viability (NCI-H2170; first compound 0.05 µM) was 0.642 and the relative viability (NCI-H2170; first compound 0.5 µM) was 0.523. For the same compound, the relative viability (NCI-H647; first compound 0.005 µM) was 0.505, the relative viability (NCI-H647; first compound 0.01581 µM) was 0.529 and the relative viability (NCI-H647; first compound 0.05 µM) was 0.63. The relative viability (NCI-H647; first compound 0.1581 µM) was 0.56, the relative viability (NCI-H647; first compound 0.5 µM) was 0.437 and the relative viability (HCC-827; first compound 0.005 µM) was 0.572. It also gave a relative viability (HCC-827; first compound 0.01581 µM) of 0.719, a relative viability (HCC-827; first compound 0.05 µM) of 0.623 and a relative viability (HCC-827; first compound 0.1581 µM) of 0.612. It also gave a relative viability (HCC-827; first compound 0.5 µM) of 0.623, a relative viability (NCI-H1975; first compound 0.005 µM) of 0.753 and a relative viability (NCI-H1975; first compound 0.01581 µM) of 0.815. The relative viability (NCI-H1975; first compound 0.05 µM) was 0.756, the relative viability (NCI-H1975; first compound 0.1581 µM) was 0.76 and the relative viability (NCI-H1975; first compound 0.5 µM) was 0.662. It also gave a relative viability (SW 1573; first compound 0.005 µM) of 0.443, a relative viability (SW 1573; first compound 0.01581 µM) of 0.416 and a relative viability (SW 1573; first compound 0.05 µM) of 0.434. For the same compound, the relative viability (SW 1573; first compound 0.1581 µM) was 0.506, the relative viability (SW 1573; first compound 0.5 µM) was 0.446 and the relative viability (LOU-NH91; first compound 0.005 µM) was 0.894. The relative viability (LOU-NH91; first compound 0.01581 µM) was 0.902, the relative viability (LOU-NH91; first compound 0.05 µM) was 0.932 and the relative viability (LOU-NH91; first compound 0.1581 µM) was 0.891. For the same compound, the relative viability (LOU-NH91; first compound 0.5 µM) was 0.871, the relative viability (NCI-H2342; first compound 0.005 µM) was 0.433 and the relative viability (NCI-H2342; first compound 0.01581 µM) was 0.404. It also gave a relative viability (NCI-H2342; first compound 0.05 µM) of 0.465, a relative viability (NCI-H2342; first compound 0.5 µM) of 0.42 and a relative viability (EPLC-272H; first compound 0.005 µM) of 0.63. It also gave a relative viability (EPLC-272H; first compound 0.01581 µM) of 0.969, a relative viability (EPLC-272H; first compound 0.05 µM) of 0.741 and a relative viability (EPLC-272H; first compound 0.1581 µM) of 0.783. It also gave a relative viability (EPLC-272H; first compound 0.5 µM) of 0.659, a relative viability (PC-3 [JPC-3]; first compound 0.01581 µM) of 1.22 and a relative viability (PC-3 [JPC-3]; first compound 0.05 µM) of 1.11. The relative viability (PC-3 [JPC-3]; first compound 0.1581 µM) was 1.15, the relative viability (PC-3 [JPC-3]; first compound 0.5 µM) was 1.09 and the relative viability (H3255; first compound 0.005 µM) was 0.544. It also gave a relative viability (H3255; first compound 0.01581 µM) of 0.56, a relative viability (H3255; first compound 0.05 µM) of 0.541 and a relative viability (H3255; first compound 0.1581 µM) of 0.602. For the same compound, the relative viability (H3255; first compound 0.5 µM) was 0.513, the relative viability (HCC-44; first compound 0.005 µM) was 0.967 and the relative viability (HCC-44; first compound 0.01581 µM) was 0.911. The relative viability (HCC-44; first compound 0.05 µM) was 0.998, the relative viability (HCC-44; first compound 0.1581 µM) was 0.949 and the relative viability (HCC-44; first compound 0.5 µM) was 0.999. For the same compound, the relative viability (LU99A; first compound 0.005 µM) was 0.275, the relative viability (LU99A; first compound 0.01581 µM) was 0.247 and the relative viability (LU99A; first compound 0.05 µM) was 0.271. For the same compound, the relative viability (LU99A; first compound 0.1581 µM) was 0.231, the relative viability (LU99A; first compound 0.5 µM) was 0.27 and the relative viability (EKVX; first compound 0.005 µM) was 0.801. For the same compound, the relative viability (EKVX; first compound 0.01581 µM) was 0.881, the relative viability (EKVX; first compound 0.05 µM) was 0.908 and the relative viability (EKVX; first compound 0.1581 µM) was 0.922. The relative viability (EKVX; first compound 0.5 µM) was 0.725, the relative viability (NCI-H1666; first compound 0.005 µM) was 0.777 and the relative viability (NCI-H1666; first compound 0.01581 µM) was 0.713. It also gave a relative viability (NCI-H1666; first compound 0.05 µM) of 0.739, a relative viability (NCI-H1666; first compound 0.1581 µM) of 0.802 and a relative viability (NCI-H1666; first compound 0.5 µM) of 0.719. The relative viability (NCI-H2085; first compound 0.005 µM) was 0.712, the relative viability (NCI-H2085; first compound 0.01581 µM) was 0.848 and the relative viability (NCI-H2085; first compound 0.05 µM) was 0.876. It also gave a relative viability (NCI-H2085; first compound 0.1581 µM) of 0.946, a relative viability (NCI-H2085; first compound 0.5 µM) of 0.734 and a relative viability (NCI-H650; first compound 0.005 µM) of 0.321. For the same compound, the relative viability (NCI-H650; first compound 0.01581 µM) was 0.359, the relative viability (NCI-H650; first compound 0.05 µM) was 0.42 and the relative viability (NCI-H650; first compound 0.1581 µM) was 0.401. The relative viability (NCI-H650; first compound 0.5 µM) was 0.323, the relative viability (BEN; first compound 0.005 µM) was 0.979 and the relative viability (BEN; first compound 0.01581 µM) was 1.09. For the same compound, the relative viability (BEN; first compound 0.05 µM) was 1.07, the relative viability (BEN; first compound 0.1581 µM) was 1.03 and the relative viability (BEN; first compound 0.5 µM) was 0.888. The relative viability (LCLC-97TM1; first compound 0.005 µM) was 0.35, the relative viability (LCLC-97TM1; first compound 0.01581 µM) was 0.34 and the relative viability (LCLC-97TM1; first compound 0.05 µM) was 0.321. The relative viability (LCLC-97TM1; first compound 0.1581 µM) was 0.427 and the relative viability (LCLC-97TM1; first compound 0.5 µM) was 0.436.
